Key:
[1] = Metabolic stability test in liver microsomes (mouse); format: in vitro ADME; settings: percentage of remaining compound after incubation for 30 minutes vs 0 minute; 1 μM compound; 0.5 mg/mL liver microsomes; 37° C.
Experimental: (§1) Male CD1 mouse liver microsomes was supplied by Research Institute for Liver Diseases (Shanghai) Co., Ltd. Male SD rat liver microsomes was supplied by BioreclamationIVT in US.
(§2) Phenacetin, glucose-6-phosphate (G-6-P), glucose-6-phosphate dehydrogenase (G-6-PD), and nicotinamide adenine dinucleotide phosphate (NADP) were supplied by Sigma-Aldrich (Missouri, USA).
(§3) 10 mM stock solution of test compound: Certain amount of test compound was weighed and dissolved in certain volume of dimethylsulfoxide (DMSO) to get the stock solution of test compound at 10 mM.
(§4) Reaction termination solution: Certain amount of phenacetin as internal standard was weighed and dissolved in acetonitrile to get the reaction termination solution at 1000 ng/mL, and stored at room temperature for use.
(§5) The stock solution of test compound was diluted to the designated concentration with organic solution (usually the mixtures of acetonitrile, methanol and water with different portions depending on the compound solution) to make the final concentration to be 1 μM and the contents of organic solvents no more than 1% (For DMSO, the controlled margin was 0.1%) in the final incubation system. 100 mM NADP, 500 mM G-6-P and 100 U/mL G-6-PDH were mixed and diluted with ultrapure water to provide the NADPH regenerating system containing 1 mM NADP, 5 mM G-6-P and 1 U/mL G-6-PD, which was pre-incubated at 37° C. water-bath for 10 min and then cooled on ice until being added into the reaction system. 20 mg/mL liver microsomes was mixed with 200 mM PBS and diluted with ultrapure water to make the concentrations of liver microsomes and PBS to be 0.5 mg/mL and 50 mM in the final incubation system, respectively. After the diluted liver microsomes was mixed with the NADPH regenerating solution, certain volumes of 100 mM EDTA and 300 mM MgCl2 (concentration of EDTA and MgCl2 in the final incubation system is 1 mM and 3 mM, respectively) were added, and the incubation system was put into 37° C. water bath. The incubation was commenced by adding the stock solution of test compound and maintained for 30 min. The incubation was terminated by adding the reaction termination solution. The 0 min sample was prepared by adding the reaction termination solution to the incubation system immediately prior to putting the system into the water bath with the addition of the stock solution of test compound. The terminated incubation mixtures were vortexed and centrifuged at 4400 rpm for 10 min, and the supernatant was collected for LC-MS/MS analysis.
(§6) The concentration of test compound was determined using LC-MS/MS method. Using the peak area ratio of the compound and the internal standard as an index, the percentage of remaining compound after incubation for 30 minutes as compared with the 0 minute sample was calculated, and the metabolic stability of the compound was evaluated.

[2] = Metabolic stability test in liver microsomes (rat); format: in vitro ADME; settings: percentage of remaining compound after incubation for 30 minutes vs 0 minute; 1 μM compound; 0.5 mg/mL liver microsomes; 37° C.
Experimental: as §1, §2, §3, §4, §5, §6

[3] = molecular target: T1, IDH2-R140Q (Homo sapiens, UniProt P48735, R140Q); assay: Fluorescent determination of IDH2-R140Q cell activity (2-HG in U87MGR140Q cells); format: cell-based; settings: 72 hours incubation, read-out: IC50 (2-HG inhibition)
T1 construct: expressed in transfected cells
T1 sequence (P48735 40-452 R140Q): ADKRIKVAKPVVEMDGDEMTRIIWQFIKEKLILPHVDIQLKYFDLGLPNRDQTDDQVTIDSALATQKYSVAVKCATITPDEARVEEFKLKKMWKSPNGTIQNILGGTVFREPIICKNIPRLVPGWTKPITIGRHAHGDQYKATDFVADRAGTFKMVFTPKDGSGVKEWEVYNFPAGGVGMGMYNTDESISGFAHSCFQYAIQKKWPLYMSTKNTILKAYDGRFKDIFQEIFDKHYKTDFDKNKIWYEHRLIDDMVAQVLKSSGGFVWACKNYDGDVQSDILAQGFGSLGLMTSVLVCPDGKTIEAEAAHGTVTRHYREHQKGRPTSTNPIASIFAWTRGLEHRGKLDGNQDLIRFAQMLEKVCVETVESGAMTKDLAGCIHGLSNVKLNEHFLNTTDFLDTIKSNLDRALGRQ

[4] = molecular target: T2, IDH1-R132H (Homo sapiens, UniProt O75874, R132H); assay: Fluorescent determination of IDH1-R132H cell activity (2-HG in U87MGR132H cells); format: cell-based; settings: 2-HG inhibition in U87MGR132H cells transfected with IDH1-R132H mutant plasmid
T2 construct: expressed in transfected cells; host or cells: U87MG cells (U87MGR132H)
T2 sequence (O75874 whole entry R132H): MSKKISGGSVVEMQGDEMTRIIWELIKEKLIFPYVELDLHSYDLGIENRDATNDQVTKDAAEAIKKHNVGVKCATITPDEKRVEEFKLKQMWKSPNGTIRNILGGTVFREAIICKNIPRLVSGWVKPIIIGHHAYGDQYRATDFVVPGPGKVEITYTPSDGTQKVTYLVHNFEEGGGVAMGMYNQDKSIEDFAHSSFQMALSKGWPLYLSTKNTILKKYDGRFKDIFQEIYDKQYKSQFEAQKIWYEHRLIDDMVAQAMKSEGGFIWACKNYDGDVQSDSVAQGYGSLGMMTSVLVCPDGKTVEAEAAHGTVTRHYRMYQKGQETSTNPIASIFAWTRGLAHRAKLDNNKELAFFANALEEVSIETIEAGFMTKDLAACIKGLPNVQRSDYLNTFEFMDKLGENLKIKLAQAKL

Row | Compound | Mouse liver microsome stability [1] [%] | Rat liver microsome stability [2] [%] | IC50 [3] [nM] | IC50 [4] [nM]
1 | [2H]C1([2H])CCC(c2nc(N[C@H](C)C(F)(F)F)nc(N[C@H](C)C(F)(F)F)n2)=C(F)C1([2H])O (mixture of isomers) [Compound 83, 3-(4,6-bis(((R)-1,1,1-trifluoropropan-2-yl)amino)-1,3,5-triazin-2-yl)-2-fluorocyclohex-2-en-1,6,6-D3-1-ol] | 83.7 | 96.6 |  | 
2 | [2H]C1([2H])CCC(c2nc(NC3CC(F)(F)C3)nc(N[C@@H](C)C(F)(F)F)n2)=C(F)C1([2H])O (mixture of isomers) [Compound 90] | 80.9 | 82.4 |  | 
3 | C[C@@H](Nc1nc(N[C@H](C)C(F)(F)F)nc(C2=C(F)C(O)CCC2)n1)C(F)(F)F (stereo partly drawn) [Compound 82, (*)3-(4,6-Bis(((R)-1,1,1-trifluoropropan-2-yl)amino)-1,3,5-triazin-2-yl)-2-fluorocyclohex-2-en-6,6-D2-1-ol] |  |  | 75 | 181
4 | C[C@@H](Nc1nc(N[C@H](C)C(F)(F)F)nc(C2=C(F)C(O)CCC2)n1)C(F)(F)F (stereo partly drawn) [Compound 83, 3-(4,6-bis(((R)-1,1,1-trifluoropropan-2-yl)amino)-1,3,5-triazin-2-yl)-2-fluorocyclohex-2-en-1,6,6-D3-1-ol] |  |  | 203 | 282
5 | [2H]C1([2H])CCC(c2nc(NOC(C)(C)C)nc(Nc3ccnc(C(F)(F)F)c3)n2)=C(F)C1O (stereo not shown) [Compound 89] |  |  | 57 | 2960
6 | C[C@@H](Nc1nc(NC2CCC(F)(F)CC2)nc(C2=CC(O)CCC2)n1)C(F)(F)F (stereo partly shown) [Compound 181] |  |  | 177 | 476
7 | CC(C)(O)CNc1nc(Nc2ccc3sncc3c2)nc(C2=C(F)C(O)CCC2)n1 (stereo not shown) [Compound 199] |  |  | 1500 | > 10000
8 | Cc1cc(Nc2nc(NOC(C)(C)C)nc(C3=C(F)C(O)CCC3)n2)ccn1 (stereo not shown) [Compound 204] |  |  | 209 | > 10000
9 | Cc1nccc(Nc2nc(NOC(C)(C)C)nc(C3=C(F)C(O)CCC3)n2)n1 (stereo not shown) [Compound 205] |  |  | 803 | > 10000
10 | CCONc1nc(Nc2ccnc(C(F)(F)F)c2)nc(C2=C(F)C(O)C(F)(F)CC2)n1 (stereo not shown) [Compound 212] |  |  | 63 | > 10000
11 | OC1C(F)=C(c2nc(NOCC3CC3)nc(Nc3ccnc(C(F)(F)F)c3)n2)CCC1(F)F (stereo not shown) [Compound 213] |  |  | 38 | > 10000
12 | CC(C)(C)ONc1nc(Nc2ccnc(C(F)(F)F)n2)nc(C2=C(F)C(O)C(F)(F)CC2)n1 (stereo not shown) [Compound 214] |  |  | 108 | > 10000
13 | CC(C)(C)ONc1nc(Nc2ccnc(F)c2)nc(C2=C(F)C(O)C(F)(F)CC2)n1 (stereo not shown) [Compound 215] |  |  | 79 | > 10000
14 | CC(C)(C)ONc1nc(Nc2ccnc(Cl)c2)nc(C2=C(F)C(O)C(F)(F)CC2)n1 (stereo not shown) [Compound 216] |  |  | 82 | 8520
15 | CCCONc1nc(Nc2ccnc(C(F)(F)F)c2)nc(C2=C(F)C(O)C(F)(F)CC2)n1 (stereo not shown) [Compound 217] |  |  | 69 | > 10000
16 | OC1C(F)=C(c2nc(Nc3ccnc(C(F)(F)F)c3)nc(N3CCC(F)(F)C3)n2)CCC1(F)F (stereo not shown) [Compound 218] |  |  | 381 | > 10000
17 | OC1C(F)=C(c2nc(Nc3ccnc(C(F)(F)F)c3)nc(NC(C3CC3)C3CC3)n2)CCC1(F)F (stereo not shown) [Compound 220] |  |  | 59 | 2880
18 | C[C@@H](Nc1nc(NC2CC2)nc(C2=C(F)C(O)CCC2)n1)C(F)(F)F (stereo partly shown) [Compound 224] |  |  | 137 | 4650

Row | Compound | Mouse liver microsome stability [1] [%] | Rat liver microsome stability [2] [%] | IC50 [3] [nM] | IC50 [4] [nM]
19 | CCCNc1nc(N[C@H](C)C(F)(F)F)nc(C2=C(F)C(O)[C@@H](F)CC2)n1 (stereo partly shown) [Compound 231] |  |  | 37 | 1530
20 | C[C@@H](Nc1nc(NCC2CC2)nc(C2=C(F)C(O)C(F)(F)CC2)n1)C(F)(F)F (stereo partly drawn) [Compound 234, 3-(4-((Cyclopropylmethyl)amino)-6-(((R)-1,1,1-trifluoropropan-2-yl)amino)-1,3,5-triazin-2-yl)-2,6,6-trifluorocyclohex-2-en-1-ol] |  |  | 78 | 1760
21 | C[C@@H](Nc1nc(NCCF)nc(C2=C(F)C(O)CCC2)n1)C(F)(F)F (stereo partly shown) [Compound 240] |  |  | 984 | > 10000
22 | OC1CCCC(c2nc(NCC(F)(F)F)nc(NC3CC(F)(F)C3)n2)=C1F (stereo not shown) [Compound 241] |  |  | 100 | 2060
23 | CC(C)Nc1nc(N[C@H](C)C(F)(F)F)nc(C2=C(F)C(O)C(F)(F)CC2)n1 (stereo partly shown) [Compound 244] |  |  | 53 | 1080
24 | CC(C)Nc1nc(NC2CC(F)(F)C2)nc(C2=C(F)C(O)C(F)(F)CC2)n1 (stereo not shown) [Compound 261] |  |  | 94 | 2230
25 | C[C@@H](Nc1nc(N[C@H](C)C(F)(F)F)nc(C2=C(F)C(O)C(F)CC2)n1)C(F)(F)F (stereo partly drawn) [Compound 266, 3-(4,6-Bis(((R)-1,1,1-trifluoropropan-2-yl)amino)-1,3,5-triazin-2-yl)-2,6-difluorocyclohex-2-en-1-D-1-ol] |  |  | 33 | 43
26 | C[C@@H](Nc1nc(N[C@H](C)C(F)(F)F)nc(C2=C(F)C(O)C(F)CC2)n1)C(F)(F)F (stereo partly drawn) [Compound 267, 3-(4,6-Bis(((R)-1,1,1-trifluoropropan-2-yl)amino)-1,3,5-triazin-2-yl)-2,6-difluorocyclohex-2-en-1-D-1-ol] |  |  | 1330 | 3570
27 | C[C@@H](Nc1nc(N[C@H](C)C(F)(F)F)nc(C2=C(F)C(O)C(F)CC2)n1)C(F)(F)F (stereo partly drawn) [Compound 268, 3-(4,6-Bis(((R)-1,1,1-trifluoropropan-2-yl)amino)-1,3,5-triazin-2-yl)-2,6-difluorocyclohex-2-en-1-D-1-ol] |  |  | 349 | 939
28 | C[C@@H](Nc1nc(N[C@H](C)C(F)(F)F)nc(C2=C(F)C(O)C(F)CC2)n1)C(F)(F)F (stereo partly drawn) [Compound 269, 3-(4,6-Bis(((R)-1,1,1-trifluoropropan-2-yl)amino)-1,3,5-triazin-2-yl)-2,6-difluorocyclohex-2-en-1-D-1-ol] |  |  | 137 | 296
29 | [2H]C1(O)C(F)=C(c2nc(NC(C)C)nc(NC3CC(F)(F)C3)n2)CCC1(F)F [Compound 274, 3-(4-((3,3-difluorocyclobutyl)amino)-6-(isopropylamino)-1,3,5-triazin-2-yl)-2,6,6-trifluorocyclohex-2-en-1-D-1-ol] |  |  | 84 | 3280
30 | CC(C)(C)ONc1nc(Nc2ccnc(C(F)(F)F)c2)nc(C2=C(F)C(O)C(F)(F)CC2)n1 (stereo not shown) [Compound 275] |  |  | 62 | 8020
31 | [2H]C1(O)C(F)=C(c2nc(NOC(C)(C)C)nc(Nc3ccnc(C(F)(F)F)c3)n2)CCC1(F)F (stereo not shown) [Compound 276] |  |  | 81 | 8370
32 | C[C@H](Nc1nc(N[C@H](C)C(F)(F)F)nc(C2=C(F)C(O)C(F)(F)CC2)n1)C(F)(F)F (stereo partly shown) [Compound 277] |  |  | 156 | 1030
33 | C[C@@H](Nc1nc(N)nc(C2=C(F)C(O)C(F)(F)CC2)n1)C(F)(F)F (stereo partly drawn) [Compound 280, 3-(4-Amino-6-(((R)-1,1,1-trifluoropropan-2-yl)amino)-1,3,5-triazin-2-yl)-2,6,6-trifluoro-cyclohex-2-en-1-ol] |  |  | > 10000 | > 10000
34 | C[C@@H](Nc1nc(N[C@H](C)C(F)(F)F)nc(C2=C(F)C(=O)C(F)(F)CC2)n1)C(F)(F)F [Compound 296] |  |  | 423 | 1140
35 | CONc1nc(Nc2ccnc(C(F)(F)F)c2)nc(C2=C(F)C(O)C(F)(F)CC2)n1 (stereo not shown) [Compound 298] |  |  | 620 | > 10000

Source: US12234211B2, “Cycloolefin substituted heteroaromatic compounds and their use” (HUTCHISON MEDIPHARMA LIMITED, priority 2017, dated 2025)
